The NIST ThermoML archive (doi:10.1021/acs.jced.6b00026)

Test: xn = mol fraction of the nth substance listed
Conditions: Fluid (supercritical or subcritical phases), Buoyancy - hydrostatic balance with magnetic suspension - one sinker

CCCCCCCCCCC [undecane] + O=C=O
Conditions | mass density [kg/m3]
333.19 K, 16015 kPa, x2 = 0.8874 | 741.91
333.21 K, 19000 kPa, x2 = 0.4641 | 752.46
333.23 K, 16000 kPa, x2 = 0.6797 | 762.53
343.19 K, 12000 kPa, x2 = 0.2483 | 720.79
343.2 K, 14004 kPa, x2 = 0.2483 | 722.81
343.2 K, 17005 kPa, x2 = 0.2483 | 725.76
343.21 K, 11985 kPa, x2 = 0.6797 | 729.1
343.24 K, 10010 kPa, x2 = 0.2483 | 718.69
343.25 K, 13002 kPa, x2 = 0.6797 | 731.82
343.25 K, 16001 kPa, x2 = 0.4641 | 738.42
343.26 K, 14997 kPa, x2 = 0.2483 | 723.76
343.26 K, 17011 kPa, x2 = 0.4641 | 739.9
343.27 K, 13999 kPa, x2 = 0.6797 | 736.08
343.27 K, 14997 kPa, x2 = 0.4641 | 736.9
343.27 K, 17005 kPa, x2 = 0.6797 | 747.33
343.28 K, 14027 kPa, x2 = 0.8874 | 673.56
343.28 K, 14995 kPa, x2 = 0.6797 | 739.94
343.28 K, 15997 kPa, x2 = 0.6797 | 743.79
343.28 K, 18018 kPa, x2 = 0.6797 | 750.83
343.3 K, 11002 kPa, x2 = 0.2483 | 719.69
343.3 K, 11003 kPa, x2 = 0.4641 | 730.57
343.3 K, 12002 kPa, x2 = 0.4641 | 732.18
343.3 K, 16007 kPa, x2 = 0.2483 | 724.72
343.3 K, 18033 kPa, x2 = 0.8874 | 723.56
343.31 K, 8003 kPa, x2 = 0.4641 | 725.39
343.31 K, 13003 kPa, x2 = 0.4641 | 733.77
343.32 K, 7999 kPa, x2 = 0.2483 | 716.46
343.32 K, 17016 kPa, x2 = 0.8874 | 713.66
343.32 K, 19002 kPa, x2 = 0.4641 | 742.71
343.34 K, 9998 kPa, x2 = 0.4641 | 728.83
343.34 K, 16020 kPa, x2 = 0.8874 | 702.38
343.34 K, 19012 kPa, x2 = 0.2483 | 727.57
343.35 K, 15016 kPa, x2 = 0.8874 | 689.29
343.35 K, 17999 kPa, x2 = 0.4641 | 741.25
343.37 K, 19004 kPa, x2 = 0.8874 | 731.75
343.37 K, 19021 kPa, x2 = 0.6797 | 753.8
343.39 K, 13010 kPa, x2 = 0.2483 | 721.68
343.4 K, 18008 kPa, x2 = 0.2483 | 726.58
343.41 K, 14002 kPa, x2 = 0.4641 | 735.22
353.08 K, 11003 kPa, x2 = 0.2483 | 711.86
353.09 K, 11995 kPa, x2 = 0.4641 | 721.32
353.12 K, 10003 kPa, x2 = 0.2483 | 710.71
353.13 K, 13017 kPa, x2 = 0.2483 | 714.01
353.13 K, 17994 kPa, x2 = 0.4641 | 731.12
353.14 K, 16002 kPa, x2 = 0.2483 | 717.14
353.19 K, 14997 kPa, x2 = 0.4641 | 726.33
353.23 K, 14005 kPa, x2 = 0.4641 | 724.68
353.31 K, 8017 kPa, x2 = 0.4641 | 712.03
353.31 K, 16999 kPa, x2 = 0.2483 | 718.15
353.33 K, 9996 kPa, x2 = 0.4641 | 717.59
353.33 K, 18011 kPa, x2 = 0.2483 | 719.15
353.34 K, 14014 kPa, x2 = 0.2483 | 715.02
353.34 K, 16078 kPa, x2 = 0.6797 | 710.53
353.35 K, 14995 kPa, x2 = 0.2483 | 716.05
353.38 K, 19001 kPa, x2 = 0.4641 | 732.5
353.39 K, 13004 kPa, x2 = 0.4641 | 722.88
353.4 K, 7998 kPa, x2 = 0.2483 | 708.29
353.4 K, 16003 kPa, x2 = 0.4641 | 727.85
353.4 K, 19017 kPa, x2 = 0.2483 | 720.08
353.41 K, 11004 kPa, x2 = 0.4641 | 719.34
353.42 K, 17964 kPa, x2 = 0.6797 | 722.19
353.43 K, 12003 kPa, x2 = 0.2483 | 712.78
353.43 K, 15953 kPa, x2 = 0.8874 | 651.24
353.43 K, 18953 kPa, x2 = 0.8874 | 692.79
353.43 K, 19052 kPa, x2 = 0.8874 | 691.56
353.44 K, 15006 kPa, x2 = 0.6797 | 702.5
353.44 K, 16998 kPa, x2 = 0.4641 | 729.38
353.44 K, 17006 kPa, x2 = 0.6797 | 716.04
353.44 K, 19016 kPa, x2 = 0.6797 | 727.96
353.45 K, 17976 kPa, x2 = 0.8874 | 681.1
353.46 K, 16003 kPa, x2 = 0.8874 | 649.3
353.46 K, 17018 kPa, x2 = 0.8874 | 665.72
353.52 K, 17018 kPa, x2 = 0.8874 | 668.1
353.52 K, 18000 kPa, x2 = 0.8874 | 678.79
